One assay concerns HeLa cells. The experiment in a line: Proliferation assay (HeLa cell line). In kind it is cell-based. The note with it: read-out: Biological Assay 2: Proliferation assay (HeLa cell line) median IC50.
The target of assay [1] is catalytic domain of human Bub1 (amino acids 704-1085) (Homo sapiens (Human), UniProt O43683). The experiment in a line: Bub1 kinase assay (TR-FRET). In kind it is biochemical. Particulars: 10 μM ATP, 1 μM peptide substrate; read-out: Biological Assay 1: Bub1 kinase assay median IC50. The essentials: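 Phosphoserine product detected by TR-FRET (Eu-labeled anti-mouse IgG/anti-phosphoserine antibody to streptavidin-XL665) after 1 h at 22 °C. IC50 from 4-parameter logistic fit.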
catalytic domain of human Bub1 (amino acids 704-1085), sequence (O43683 704-1085): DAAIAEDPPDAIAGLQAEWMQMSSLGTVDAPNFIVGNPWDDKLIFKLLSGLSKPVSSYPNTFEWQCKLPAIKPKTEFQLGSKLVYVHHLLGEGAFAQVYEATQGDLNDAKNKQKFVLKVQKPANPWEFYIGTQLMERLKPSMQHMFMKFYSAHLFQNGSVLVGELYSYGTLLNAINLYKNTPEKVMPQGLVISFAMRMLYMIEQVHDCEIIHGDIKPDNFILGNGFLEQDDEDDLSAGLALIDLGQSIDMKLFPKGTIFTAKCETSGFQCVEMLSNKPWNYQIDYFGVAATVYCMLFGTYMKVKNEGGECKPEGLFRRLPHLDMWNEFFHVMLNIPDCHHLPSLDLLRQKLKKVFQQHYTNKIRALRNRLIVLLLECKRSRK
In general terms: TR-FRET usually uses a lanthanide donor and a delayed reading to cut background.

The mark [2] stands for this setting: Homo sapiens, 96 h, 4 days, crystal violet.

pIC50: −log10 of the molar value. Values joined by “and” are separate entries in the source; they are usually repeats but may differ in a detail not shown here. Equal entries are not always repeated. Where two headings read alike, the source gives them in different places.

As for `CCOc1cc(F)c(Cn2nc(-c3ncc(O)c(Nc4ccncc4)n3)c3ccccc32)c(F)c1` [Example 3-1, 2-[1-(4-ethoxy-2,6-difluorobenzyl)-1H-indazol-3-yl]-4-(pyridin-4-ylamino)pyrimidin-5-ol], the pIC50 is not above 5.00 in the assay with HeLa cells (Homo sapiens, 96 h) and 8.33 in assay [1].

With `COc1ccc(Cn2nc(-c3ncc(O)c(Nc4ccncc4)n3)c3ccccc32)cc1` [Example 3-2, 2-[1-(4-methoxybenzyl)-1H-indazol-3-yl]-4-(pyridin-4-ylamino) pyrimidin-5-ol], the pIC50 in the assay on HeLa cells (Homo sapiens, 96 h) is not above 5.00; in assay [1], 8.01.

Turning to `Oc1cnc(-c2nn(Cc3ccccc3F)c3ccccc23)nc1Nc1ccncc1` [Example 3-3, 2-[1-(2-fluorobenzyl)-1H-indazol-3-yl]-4-(pyridin-4-ylamino)pyrimidin-5-ol], the pIC50 in the assay with HeLa cells (Homo sapiens, 96 h) was not above 5.00; in assay [1], 7.82.

With `Oc1cnc(-c2nn(Cc3ccc(F)cc3)c3ccccc23)nc1Nc1ccncc1` [Example 3-4, 2-[1-(4-fluorobenzyl)-1H-indazol-3-yl]-4-(pyridin-4-ylamino) pyrimidin-5-ol], the pIC50 with HeLa cells (setting [2]) is not above 5.00; in assay [1] it was 7.32.

With `CCOc1cc(F)c(Cn2nc(-c3ncc(OCC4(CO)COC4)c(Nc4ccncc4)n3)c3ccccc32)c(F)c1` [Example 4-1, {3-[({2-[1-(4-ethoxy-2,6-difluorobenzyl)-1H-indazol-3-yl]-4-(pyridin-4-ylamino)pyrimidin-5-yl}oxy)methyl]oxetan-3-yl}methanol], the pIC50 in the assay with HeLa cells (Homo sapiens, 96 h) was 5.46; in assay [1] it was 8.62.

Regarding `NS(=O)(=O)COc1cnc(-c2nn(Cc3ccccc3F)c3ccccc23)nc1Nc1ccncc1` [Example 4-3, 1-({2-[1-(2-fluorobenzyl)-1H-indazol-3-yl]-4-(pyridin-4-ylamino)pyrimidin-5-yl}oxy)methane-sulfonamide], the pIC50 was 4.85 in the assay on HeLa cells (Homo sapiens, 96 h) and 8.12 in assay [1].

Take `Fc1ccccc1Cn1nc(-c2ncc(OCCc3nnn[nH]3)c(Nc3ccncc3)n2)c2ccccc21` [Example 4-5-1, 2-[1-(2-fluorobenzyl)-1H-indazol-3-yl]-N-(pyridin-4-yl)-5-[2-(1H-tetrazol-5-yl)ethoxy] pyrimidin-4-amine]: the pIC50 was not above 5.00 in the assay with HeLa cells (setting [2]) and 7.74 in assay [1].

As to `CN(C)CCOc1cnc(-c2nn(Cc3ccc(F)cc3)c3ccccc23)nc1Nc1ccncc1` [Example 4-6, 5-[2-(dimethyl-amino)ethoxy]-2-[1-(4-ftuorobenzyl)-1H-indazol-3-yl]-N-(pyridin-4-yl)pyrimidin-4-amine], the pIC50 with HeLa cells (Homo sapiens, 96 h) was 5.44; in assay [1] it was 7.54.

With `Fc1ccccc1Cn1nc(-c2ncc(OCc3nnn[nH]3)c(Nc3ccncc3)n2)c2ccccc21` [Example 4-7, 2-[1-(2-fluorobenzyl)-1H-indazol-3-yl]-N-(pyridin-4-yl)-5-(1H-tetrazol-5-ylmethoxy) pyrimidin-4-amine], the pIC50 with HeLa cells (setting [2]) is not above 5.00; in assay [1], 7.46.

Regarding `CCOc1cc(F)c(Cn2nc(-c3ncc(OCCOC)c(Nc4ccncc4)n3)c3ccccc32)c(F)c1` [Example 4-10, 2-[1-(4-ethoxy-2,6-difluorobenzyl)-1H-indazol-3-yl]-5-(2-methoxyethoxy)-N-(pyridin-4-yl)pyrimidin-4-amine], the pIC50 in the assay on HeLa cells (Homo sapiens, 96 h) was 5.36; in assay [1] it was 8.05.

In the case of `COCc1noc(COc2cnc(-c3nn(Cc4ccccc4F)c4ccccc34)nc2Nc2ccncc2)n1` [Example 4-13, 2-[1-(2-fluorobenzyl)-1H-indazol-3-yl]-5-{[3-(methoxymethyl)-1,2,4-oxadiazol-5-yl]methoxy}-N-(pyridin-4-yl)pyrimidin-4-amine], the pIC50 in the assay on HeLa cells (Homo sapiens, 96 h) was 5.10; in assay [1], 7.12 and 8.12.

Consider `CCOC(=O)COc1cnc(-c2nn(Cc3c(F)cc(OCC)cc3F)c3ccccc23)nc1Nc1ccncc1` [Example 4-14, ethyl ({2-[1-(4-ethoxy-2,6-difluorobenzyl)-1H-indazol-3-yl]-4-(pyridin-4-ylamino)pyrimidin-5-yl}oxy)acetate], for which the figures for the pIC50 (with HeLa cells (setting [2]); in assay [1]) were not above 5.00 and 7.92, respectively.

As for `CCOc1cc(F)c(Cn2nc(-c3ncc(OCC(=O)N4CC(F)C4)c(Nc4ccncc4)n3)c3ccccc32)c(F)c1` [Example 4-21, 2-({2-[1-(4-ethoxy-2,6-difluorobenzyl)-1H-indazol-3-yl]-4-(pyridin-4-ylamino)pyrimidin-5-yl}oxy)-1-(3-fiuoroazetidin-1-yl)ethanone], the pIC50 is 5.42 in the assay with HeLa cells (Homo sapiens, 96 h) and 8.11 in assay [1].

With `CCOc1cc(F)c(Cn2nc(-c3ncc(OCCNC(=O)OC(C)(C)C)c(Nc4ccncc4)n3)c3ccccc32)c(F)c1` [Example 4-23, tert-butyl [2-({2-[1-(4-ethoxy-2,6-difluorobenzyl)-1H-indazol-3-yl]-4-(pyridin-4-ylamino)pyrimidin-5-yl}oxy)ethyl]carbamate], the pIC50 in the assay on HeLa cells (setting [2]) is 5.31; in assay [1], 8.03.

As for `CCOc1cc(F)c(Cn2nc(-c3nccc(Nc4ccncc4)n3)c3ccccc32)c(F)c1` [Example 5-1, 2-[1-(4-ethoxy-2,6-difluorobenzyl)-1H-indazol-3-yl]-N-(pyridin-4-yl)pyrimidin-4-amine], the pIC50 in the assay with HeLa cells (Homo sapiens, 96 h) is 5.85; in assay [1], 8.28.

Take `Fc1ccccc1Cn1nc(-c2nccc(Nc3ccncc3)n2)c2ccccc21` [Example 5-3, 2-[1-(2-fluorobenzyl)-1H-indazol-3-yl]-N-(pyridin-4-yl)pyrimidin-4-amine]: the pIC50 with HeLa cells (Homo sapiens, 96 h) is 5.13; in assay [1], 7.55.

Turning to `COc1cnc(-c2nn(Cc3c(F)cc(C4CC4)cc3F)c3ccccc23)nc1Nc1ccncc1` [Example 6-1, 2-[1-(4-cyclopropyl-2,6-difluorobenzyl)-1H-indazol-3-yl]-5-methoxy-N-(pyridin-4-yl)pyrimidin-4-amine], the pIC50 with HeLa cells (setting [2]) is 5.51; in assay [1] it was 8.41.

Consider `COc1cnc(-c2nn(Cc3c(F)cc(C(C)=O)cc3F)c3ccccc23)nc1Nc1ccncc1` [Example 7-1, 1-[3,5-difluoro-4-({3-[5-methoxy-4-(pyridin-4-ylamino)pyrimidin-2-yl]-1H-indazol-1-yl}methyl)phenyl]ethanone], for which the pIC50 in the assay with HeLa cells (Homo sapiens, 96 h) is 5.36; in assay [1] it was 8.52.

Consider `COc1cnc(-c2nn(Cc3c(Cl)ccc(CO)c3Cl)c3ccccc23)nc1Nc1ccncc1` [Example 8-1, [2,4-dichloro-3-({3-[5-methoxy-4-(pyridin-4-ylamino)pyrimidin-2-yl]-1H-indazol-1-yl}methyl)phenyl]methanol], for which the pIC50 in the assay with HeLa cells (4 days, crystal violet) was 5.49; in assay [1], 8.13.

In the case of `COc1cnc(-c2nn(Cc3cccc(CCO)c3)c3ccccc23)nc1Nc1ccncc1` [Example 8-2, 2-[3-({3-[5-methoxy-4-(pyridin-4-ylamino)pyrimidin-2-yl]-1H-indazol-1-yl}methyl)phenyl] ethanol], the pIC50 is 5.26 in the assay with HeLa cells (setting [2]) and 7.68 in assay [1].

With `COc1cnc(-c2nn(Cc3cccc(C(C)(C)CO)c3)c3ccccc23)nc1Nc1ccncc1` [Example 8-3, 2-[3-({3-[5-methoxy-4-(pyridin-4-ylamino)pyrimidin-2-yl]-1H-indazol-1-yl}methyl)phenyl]-2-methylpropan-1-ol], the pIC50 with HeLa cells (setting [2]) was not above 5.00; in assay [1], 6.62.

The values are drawn from patent publication US10266548B2, “Substituted benzylindazoles for use as Bub1 kinase inhibitors in the treatment of hyperproliferative diseases” (Bayer Intellectual Property GmbH, priority 2011, dated 2019).
